{
  "source": "patent US20250333442A1",
  "about": "“NOVEL CELL-PERMEABLE PEPTIDE AND USE THEREOF” (AJOU UNIVERSITY INDUSTRY-ACADEMIC COOPERATION FOUNDATION, priority 2021, published 2025)",
  "key": {"splenocytes [1]": {"tested_on": "splenocytes", "assay": "Cell permeability via flow cytometry, splenocytes", "type": "cell-based, mouse", "conditions": "culture times 1, 4, 24 and 48 hours", "experimental": "(§1) To determine whether the F1 peptide has entered the cell by penetrating the plasma membrane, splenocytes and lymph node cells were isolated from 4-week-old ICR mice, cultured for 1 hour, treated with 1 μg/mL of fluorescent-labeled F1 and F2 peptides, respectively, and then cultured for 48 hours. Flow cytometry was then used to analyze a frequency of fluorescent-labeled cells over culture time (1, 4, 24, and 48 hours) to determine the frequency of cells into which the peptide moved."}, "lymph node cells": {"tested_on": "lymph node cells", "assay": "Cell permeability via flow cytometry, lymph node cells", "type": "cell-based, mouse", "conditions": "for positive cell frequency (of entire cells): 1 μg/mL", "experimental": "as §1"}, "skin (epidermis) tissues": {"tested_on": "skin (epidermis) tissues", "assay": "Skin tissue permeability by confocal microscopy", "type": "in vivo, mouse", "conditions": "for fluorescence expression in tissues: 1 μg/mL applied to mouse leg skin with cotton swab, cryosection; for difference in fluorescence expression with or without scratches: normal versus needle-scratched skin, 1 μg/mL, 1˜2 hours", "experimental": "To identify the skin tissue permeability of the F1 peptide, the left leg of 4-week-old ICR mice was left unscratched, and the right leg was scratched with a needle. Afterwards, 1 μg/mL of fluorescent-labeled F1 and F2 peptides was applied to both legs with cotton swabs respectively, and after 1˜2 hours, skin (epidermis) tissues were collected, cryosectioned, and observed under confocal microscopy."}, "peritoneal macrophages": {"tested_on": "peritoneal macrophages", "assay": "Peritoneal macrophage permeability by confocal microscopy", "type": "cell-based", "conditions": "1 μg/mL fluorescent-labeled peptide, ICR mouse peritoneal macrophages, culture times 1, 4 and 24 hours", "experimental": "To determine the cell permeability of F1 peptides, 1 μg/mL of fluorescent-labeled F1 and F2 peptides was treated to cultures of peritoneal macrophages isolated from 4-week-old ICR mice, followed by culture for 24 hours. Afterwards, intracellular fluorescence expression over culture times (1, 4 and 24 hours) was observed by confocal microscopy."}, "splenocytes [2]": {"tested_on": "splenocytes", "assay": "Splenocyte permeability by confocal microscopy", "type": "cell-based", "conditions": "1 μg/mL fluorescent-labeled peptide, ICR mouse splenocytes, culture times 1, 4 and 24 hours", "experimental": "To determine the cell permeability of F1 peptides, 1 μg/mL of fluorescent-labeled F1 and F2 peptides were treated to cultures of splenocytes isolated from 4-week-old ICR mice, followed by culture for 24 hours. Afterwards, intracellular fluorescence expression over culture times (1, 4 and 24 hours) was observed by confocal microscopy. The untreated group with no peptide treatment involved was used as a control, alongside with a GFP peptide ([…]) treated group without cell permeability and a scramble D treated group (negative control)."}, "splenocytes [3]": {"tested_on": "splenocytes", "assay": "Cell permeability of peptides with SEQ ID NOS: 22 to 30 via flow cytometry", "type": "cell-based, mouse", "conditions": "splenocytes of 8-week-old ICR mice, 1 μg/mL, 24 and 48 hours", "experimental": "To determine whether the F1 peptide enables penetration into cells even if a peptide without cell permeability is linked in the middle of any amino acid sequence, splenocytes were isolated from ICR 8-week-old mice and cultured for 1 hour. Afterwards, 1 μg/mL of fluorescent-labeled peptides (SEQ ID NOS: 22 to 30) was treated to cells respectively, followed by culture for 48 hours. Afterwards, flow cytometry was used to analyze the frequency of fluorescent-labeled cells over the culture time (24 and 48 hours) to determine the frequency of cells into which the peptide moved. […] A total of 4 mice were used, with the number of mice per experimental group (Group) set to 2 and the experiment repeated twice."}, "[4]": {"conditions": "tissue collected after 1˜2 hours, confocal microscopy"}},
  "data": [
    {"substance": "HKFSVSGEGEGDATC [GFP peptide, GFP peptide without cell permeability, used as control, reference compound]", "values": [
      {"measurement": "intracellular fluorescence expression", "setting": "splenocytes [1]", "value": "intracellular fluorescence expression was not observed"},
      {"measurement": "intracellular fluorescence expression", "setting": "lymph node cells; culture times 1, 4, 24 and 48 hours", "value": "intracellular fluorescence expression was not observed"}
    ]},
    {"substance": "GCCGEIV [Peptide F1]", "values": [
      {"measurement": "fluorescence expression in tissues", "setting": "skin (epidermis) tissues; [4]", "value": "showed fluorescence expression in tissues"},
      {"measurement": "difference in fluorescence expression with or without scratches", "setting": "skin (epidermis) tissues", "value": "no significant difference"},
      {"measurement": "intracellular fluorescence expression", "setting": "peritoneal macrophages", "value": "showed fluorescence expression in peritoneal macrophages"},
      {"measurement": "positive cell frequency (of entire cells)", "setting": "lymph node cells; over 4 hours", "value": "about 40%"},
      {"measurement": "intracellular fluorescence expression", "setting": "splenocytes [2]", "value": "showed fluorescence expression in splenocytes"}
    ]},
    {"substance": "GCCGEIVDDDDDDDD [Peptide F1D8]", "values": [
      {"measurement": "degree of penetration of the D peptide into the cell compared with R8D control", "setting": "splenocytes [3]", "value": "superior to that of the R8 peptide"},
      {"measurement": "penetration of the DDDDDDDD peptide inside the cell compared with cTATD control", "setting": "splenocytes [3]", "value": "at a level similar to that of the cTAT peptide"}
    ]},
    {"substance": "GCDDDDDDDDCGEIV [Peptide F2]", "values": [
      {"measurement": "fluorescence expression in tissues", "setting": "skin (epidermis) tissues; [4]", "value": "showed fluorescence expression in tissues"},
      {"measurement": "fluorescence expression in hair follicles", "setting": "skin (epidermis) tissues; 1 μg/mL applied to mouse leg skin, tissue collected after 1˜2 hours, confocal microscopy", "value": "strong fluorescence expression especially in hair follicles"},
      {"measurement": "difference in fluorescence expression with or without scratches", "setting": "skin (epidermis) tissues", "value": "no significant difference"},
      {"measurement": "intracellular fluorescence expression", "setting": "peritoneal macrophages", "value": "showed fluorescence expression in peritoneal macrophages"},
      {"measurement": "positive cell frequency (of entire cells)", "setting": "lymph node cells; over 48 hours", "value": "about 60%"},
      {"measurement": "intracellular fluorescence expression", "setting": "splenocytes [2]", "value": "showed fluorescence expression in splenocytes"}
    ]}
  ]
}
